# According to patent US20090042238A1, “Method of evaluating cell function, system for evaluating cell function, fluorescent microscope system, phototherapy method and phototherapy system” (NIKON CORPORATION, priority 2006, published 2009):
# Tested on: mitochondria in living cells
# Assay: evaluation of cell function (phototoxic property) with confocal fluorescence microscope system
# Assay type: cell-based
# From the text: The following describes an example of the evaluation of cell function according to the present invention, performed with the confocal fluorescence microscope system of the First Embodiment.
# RH123, used as a fluorescent dye, was applied to the mitochondria in living cells to prepare a specimen. The specimen was two-dimensionally scanned by irradiating an argon laser (488 nm) emitted in a predetermined intensity from the excitation light source 11, so as to obtain a fluorescence image of one frame.
# FIG. 8(A) is the actual first fluorescence image obtained. Predetermined positions of the mitochondria (stained area) and the cellular cytoplasm (reference point) were specified by rectangular shaped frames, and a mean value of brightness values of the pixels in each of these specific areas was determined. These mean values were used as the brightness value of the mitochondria, and the brightness value of the cellular cytoplasm, respectively.
# This procedure of obtaining the fluorescence image was repeated under the same conditions, and the brightness values of the mitochondria and the cellular cytoplasm were measured. FIG. 8(B) is the actual 50th fluorescence image, and FIG. 8(C) is the actual 150th fluorescence image obtained. It can be seen from FIG. 8 that the fluorescence image indeed undergoes changes as described in the First Embodiment with reference to FIG. 2.
substance,measurement,setting,value
Rhodamin 123 [RH123],frame number in which the brightness value of the cellular cytoplasm has the peak (functional depression of the mitochondria complete),"argon laser (488 nm) of a predetermined intensity, repeated imaging, FIG. 9(A)",50
same,frame number in which the brightness value of the cellular cytoplasm has the peak,"laser beam having a weaker intensity than in FIG. 9(A), otherwise same conditions, FIG. 9(B)",70
